Assay results published in ChEMBL document CHEMBL1201862, “PubChem BioAssay data set” (2004).
Activity calls are given as the source filed them.

Key:
[1] = biological target: Dual specificity tyrosine-phosphorylation-regulated kinase 1A (Rattus norvegicus, UniProt Q63470); assay type: biochemical, Homo sapiens
Cysteine protease ATG4B = biological target: T1, Cysteine protease ATG4B (Homo sapiens, UniProt Q9Y4P1); assay type: functional;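 also: Fluorescence-based dose-response confirmation assay measuring inhibition of ATG4B activity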
T1 sequence (Q9Y4P1 whole entry): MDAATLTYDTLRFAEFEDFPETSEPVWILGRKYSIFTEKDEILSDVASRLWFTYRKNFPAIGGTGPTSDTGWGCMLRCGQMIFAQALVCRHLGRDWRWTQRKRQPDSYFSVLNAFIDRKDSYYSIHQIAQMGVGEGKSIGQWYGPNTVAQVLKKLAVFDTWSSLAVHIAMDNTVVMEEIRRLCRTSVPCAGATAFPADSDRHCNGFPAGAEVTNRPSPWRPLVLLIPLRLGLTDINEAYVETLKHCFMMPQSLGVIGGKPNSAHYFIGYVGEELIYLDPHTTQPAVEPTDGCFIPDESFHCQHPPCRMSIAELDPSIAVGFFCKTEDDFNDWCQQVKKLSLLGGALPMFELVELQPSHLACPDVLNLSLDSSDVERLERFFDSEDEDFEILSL

Genome polyprotein = Genome polyprotein (dengue virus type 2, UniProt P29990); experiment: Dengue-2 NS5 methyltransferase inhibitors, primary screen, biochemical, confirmation dose response (AID 588689); assay type: functional
Genome polyprotein, sequence (P29990 2492-3391 limits assumed): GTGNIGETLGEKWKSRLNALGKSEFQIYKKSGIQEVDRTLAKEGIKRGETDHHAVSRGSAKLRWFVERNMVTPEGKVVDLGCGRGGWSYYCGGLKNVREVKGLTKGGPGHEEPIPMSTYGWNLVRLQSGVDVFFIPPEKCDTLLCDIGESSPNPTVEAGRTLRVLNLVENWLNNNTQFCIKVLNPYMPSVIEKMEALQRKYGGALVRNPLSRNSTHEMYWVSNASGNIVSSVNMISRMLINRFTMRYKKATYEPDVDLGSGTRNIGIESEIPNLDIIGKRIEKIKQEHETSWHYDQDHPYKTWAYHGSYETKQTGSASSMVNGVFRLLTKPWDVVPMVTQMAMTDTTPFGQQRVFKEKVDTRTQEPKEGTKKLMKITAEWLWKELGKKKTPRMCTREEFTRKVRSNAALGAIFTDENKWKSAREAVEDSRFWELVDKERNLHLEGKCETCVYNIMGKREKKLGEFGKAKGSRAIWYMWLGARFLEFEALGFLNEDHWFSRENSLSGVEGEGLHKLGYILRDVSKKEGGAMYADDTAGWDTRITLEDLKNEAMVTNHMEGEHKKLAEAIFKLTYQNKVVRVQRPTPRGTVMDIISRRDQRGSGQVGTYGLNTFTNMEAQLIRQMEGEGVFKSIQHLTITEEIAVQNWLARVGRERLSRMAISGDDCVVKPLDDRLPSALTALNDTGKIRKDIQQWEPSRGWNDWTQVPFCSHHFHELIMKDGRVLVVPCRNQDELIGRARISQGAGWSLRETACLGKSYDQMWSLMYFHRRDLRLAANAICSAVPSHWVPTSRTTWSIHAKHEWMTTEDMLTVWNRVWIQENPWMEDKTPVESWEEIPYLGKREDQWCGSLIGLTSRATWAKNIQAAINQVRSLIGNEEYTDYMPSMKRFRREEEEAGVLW

Large T antigen = Large T antigen (Simian virus 40, UniProt P03070); assay type: functional, Betapolyomavirus macacae;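 also: Confirmatory-stage PubChem screen for compounds that inhibit SV40 T antigen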
Large T antigen, sequence (P03070 whole entry): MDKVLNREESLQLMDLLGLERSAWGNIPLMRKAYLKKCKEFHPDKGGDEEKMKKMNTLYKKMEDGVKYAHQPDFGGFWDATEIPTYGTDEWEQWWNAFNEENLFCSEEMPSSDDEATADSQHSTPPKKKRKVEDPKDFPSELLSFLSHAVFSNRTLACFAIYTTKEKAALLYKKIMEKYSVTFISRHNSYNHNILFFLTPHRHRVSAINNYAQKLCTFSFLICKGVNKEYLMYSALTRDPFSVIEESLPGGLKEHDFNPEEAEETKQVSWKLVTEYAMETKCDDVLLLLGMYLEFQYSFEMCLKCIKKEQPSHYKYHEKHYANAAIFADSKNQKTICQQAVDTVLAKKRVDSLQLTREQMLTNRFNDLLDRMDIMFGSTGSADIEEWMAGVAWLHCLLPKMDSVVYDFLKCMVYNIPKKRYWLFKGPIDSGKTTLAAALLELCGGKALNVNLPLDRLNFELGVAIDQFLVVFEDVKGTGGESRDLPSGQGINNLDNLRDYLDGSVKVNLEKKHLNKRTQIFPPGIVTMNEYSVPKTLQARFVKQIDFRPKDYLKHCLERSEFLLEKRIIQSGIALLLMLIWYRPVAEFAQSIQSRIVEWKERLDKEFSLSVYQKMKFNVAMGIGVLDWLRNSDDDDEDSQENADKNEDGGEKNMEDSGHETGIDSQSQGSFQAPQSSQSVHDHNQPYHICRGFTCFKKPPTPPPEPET

Phospholipase A2 = Phospholipase A2 (Homo sapiens, UniProt P04054); assay type: functional;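 also: confirmatory dose-response counterscreen on phospholipase A2, testing hits that came from an ultra-high-throughput screen for ATG4B inhibitors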
Phospholipase A2, sequence (P04054 whole entry): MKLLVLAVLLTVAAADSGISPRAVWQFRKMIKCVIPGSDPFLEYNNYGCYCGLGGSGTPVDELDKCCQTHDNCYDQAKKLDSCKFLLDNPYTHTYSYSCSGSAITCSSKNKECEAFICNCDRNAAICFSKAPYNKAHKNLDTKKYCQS

[2] = biological target: Heat shock protein HSP 90-alpha (Homo sapiens, UniProt P07900); assay type: functional, organism-based
[3] = biological target: T2, High affinity choline transporter 1 (Homo sapiens, UniProt Q9GZV3); experiment: CHT inhibitors, dose response, cell-based, 5-point CRC, membrane potential dye (AID 504840); assay type: functional
T2 sequence (Q9GZV3 whole entry): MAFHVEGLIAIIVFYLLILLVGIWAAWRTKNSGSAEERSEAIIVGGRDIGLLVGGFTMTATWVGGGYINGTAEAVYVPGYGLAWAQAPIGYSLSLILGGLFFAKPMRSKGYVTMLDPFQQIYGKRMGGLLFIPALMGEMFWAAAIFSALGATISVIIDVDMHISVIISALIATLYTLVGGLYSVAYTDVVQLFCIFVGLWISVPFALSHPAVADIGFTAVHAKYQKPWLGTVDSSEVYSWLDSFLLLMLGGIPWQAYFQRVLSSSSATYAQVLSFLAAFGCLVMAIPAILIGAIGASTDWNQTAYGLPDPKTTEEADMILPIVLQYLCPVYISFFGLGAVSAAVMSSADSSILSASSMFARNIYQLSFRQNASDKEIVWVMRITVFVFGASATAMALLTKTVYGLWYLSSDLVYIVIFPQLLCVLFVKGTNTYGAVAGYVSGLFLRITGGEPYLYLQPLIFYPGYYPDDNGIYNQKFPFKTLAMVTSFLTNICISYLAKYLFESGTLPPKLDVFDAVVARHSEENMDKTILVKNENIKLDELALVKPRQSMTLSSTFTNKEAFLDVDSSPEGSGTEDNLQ

[4] = biological target: T3, Zinc finger protein mex-5 (Caenorhabditis elegans, UniProt Q9XUB2); experiment: MEX-5/TCR-2 RNA interaction inhibitors, dose response, biochemical, C. elegans, fluorescence polarization (AID 1960)
T3 sequence (Q9XUB2 whole entry): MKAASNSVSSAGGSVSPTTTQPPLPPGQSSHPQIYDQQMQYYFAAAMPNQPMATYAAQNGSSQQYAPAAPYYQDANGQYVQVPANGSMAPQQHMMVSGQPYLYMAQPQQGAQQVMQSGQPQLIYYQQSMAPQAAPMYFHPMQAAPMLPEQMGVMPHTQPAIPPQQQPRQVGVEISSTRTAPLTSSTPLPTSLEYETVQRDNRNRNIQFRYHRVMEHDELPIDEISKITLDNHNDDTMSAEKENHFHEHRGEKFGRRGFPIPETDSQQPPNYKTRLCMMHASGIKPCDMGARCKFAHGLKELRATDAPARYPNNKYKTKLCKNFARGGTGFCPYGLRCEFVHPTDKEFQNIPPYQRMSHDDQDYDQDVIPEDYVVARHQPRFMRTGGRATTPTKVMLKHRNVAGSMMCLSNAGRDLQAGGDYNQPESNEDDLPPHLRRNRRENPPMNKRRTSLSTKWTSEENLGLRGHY

[5] = biological target: T4, Endoribonuclease toxin MazF (Escherichia coli K-12, UniProt P0AE70); experiment: fluorescent RNA oligo signal without MazF, dose response, counter-screen for MazEF activator project, biochemical, fluorescence, single-stranded RNase substrate (AID 588502); assay type: functional
T4 sequence (P0AE70 whole entry): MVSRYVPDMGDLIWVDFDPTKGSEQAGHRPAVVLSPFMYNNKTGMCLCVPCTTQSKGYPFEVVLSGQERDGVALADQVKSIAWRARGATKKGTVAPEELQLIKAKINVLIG

[6] = biological target: T4, Endoribonuclease toxin MazF; experiment: MazF toxin RNase activators, dose response, biochemical, fluorescence, single-stranded RNA substrate, uHTS hits (AID 588481); assay type: functional
[7] = biological target: T5, Rac GTPase-activating protein 1 (Homo sapiens, UniProt Q9H0H5); experiment: MgcRacGAP GTPase-activating activity inhibitors, confirmation, biochemical, ADP Hunter fluorescence, primary and confirmatory (AID 624330); assay type: functional
T5 sequence (Q9H0H5 whole entry): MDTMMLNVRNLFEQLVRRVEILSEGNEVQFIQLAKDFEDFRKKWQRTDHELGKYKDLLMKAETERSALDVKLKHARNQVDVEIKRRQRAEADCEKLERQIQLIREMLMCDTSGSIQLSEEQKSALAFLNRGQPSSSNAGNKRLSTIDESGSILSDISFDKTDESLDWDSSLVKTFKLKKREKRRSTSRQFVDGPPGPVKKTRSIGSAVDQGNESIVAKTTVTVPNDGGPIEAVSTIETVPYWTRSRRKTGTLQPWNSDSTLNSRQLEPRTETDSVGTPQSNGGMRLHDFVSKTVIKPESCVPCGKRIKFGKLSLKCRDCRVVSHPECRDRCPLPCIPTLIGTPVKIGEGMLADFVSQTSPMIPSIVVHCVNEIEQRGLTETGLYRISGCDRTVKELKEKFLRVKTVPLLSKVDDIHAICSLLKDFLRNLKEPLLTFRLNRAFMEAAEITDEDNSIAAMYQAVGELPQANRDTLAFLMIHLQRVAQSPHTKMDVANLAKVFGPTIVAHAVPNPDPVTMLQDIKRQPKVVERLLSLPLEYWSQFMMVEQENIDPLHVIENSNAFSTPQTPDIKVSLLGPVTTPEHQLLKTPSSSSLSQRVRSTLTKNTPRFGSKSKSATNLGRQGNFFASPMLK

[8] = biological target: T6, Long-chain-fatty-acid--AMP ligase FadD28 (Mycobacterium tuberculosis, UniProt P9WQ59); experiment: Fluorescence polarization aasay to screen for inhibitors that compete for the binding of FadD28 to a bisubstrate Measured in Biochemical System Using Plate Reader - 2147-01_Inhibitor_Dose_CherryPick_Activity.; assay type: functional, Mycobacterium tuberculosis H37Rv
T6 sequence (P9WQ59 whole entry): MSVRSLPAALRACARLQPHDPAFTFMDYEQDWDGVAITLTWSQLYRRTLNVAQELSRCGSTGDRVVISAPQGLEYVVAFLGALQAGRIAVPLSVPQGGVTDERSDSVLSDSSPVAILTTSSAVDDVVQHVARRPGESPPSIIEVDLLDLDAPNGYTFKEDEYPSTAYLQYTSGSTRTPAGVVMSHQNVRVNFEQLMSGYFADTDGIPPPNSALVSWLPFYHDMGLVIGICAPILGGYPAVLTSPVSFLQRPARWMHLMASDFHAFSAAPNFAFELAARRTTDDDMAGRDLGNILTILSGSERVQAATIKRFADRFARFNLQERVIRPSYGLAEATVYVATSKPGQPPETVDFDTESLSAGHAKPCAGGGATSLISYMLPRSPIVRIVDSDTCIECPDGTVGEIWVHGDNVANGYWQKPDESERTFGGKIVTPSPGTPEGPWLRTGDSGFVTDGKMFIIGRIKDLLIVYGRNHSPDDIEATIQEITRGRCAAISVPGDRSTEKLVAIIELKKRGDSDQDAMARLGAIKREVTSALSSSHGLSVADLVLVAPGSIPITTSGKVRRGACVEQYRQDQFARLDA

Streptokinase A = biological target: T7, Streptokinase A (Streptococcus pyogenes serotype M1, UniProt P10520); experiment: S. pyogenes streptokinase expression inhibitors, potency, dose response, plasminogen activation absorbance, OD405 (AID 1914); assay type: functional, Streptococcus pyogenes M1 GAS;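 also: secreted streptokinase activity via plasminogen activation per viability signal from cell pellet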
T7 sequence (P10520 whole entry): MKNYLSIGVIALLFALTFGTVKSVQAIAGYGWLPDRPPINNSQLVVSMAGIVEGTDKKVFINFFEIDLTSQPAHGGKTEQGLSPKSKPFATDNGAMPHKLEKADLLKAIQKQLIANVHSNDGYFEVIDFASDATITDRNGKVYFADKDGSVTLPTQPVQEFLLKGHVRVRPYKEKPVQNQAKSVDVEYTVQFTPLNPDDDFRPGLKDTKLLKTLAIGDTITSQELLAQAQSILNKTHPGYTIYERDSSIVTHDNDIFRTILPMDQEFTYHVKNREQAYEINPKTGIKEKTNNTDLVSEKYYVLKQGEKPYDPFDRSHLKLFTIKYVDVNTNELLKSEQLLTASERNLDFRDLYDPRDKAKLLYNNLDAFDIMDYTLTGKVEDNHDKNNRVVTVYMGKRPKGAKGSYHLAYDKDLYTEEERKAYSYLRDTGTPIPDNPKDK

[9] = biological target: T2, High affinity choline transporter 1; experiment: CHT inhibitors, dose response, cell-based, 10-point CRC, membrane potential dye (AID 588401); assay type: functional;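 also: membrane potential dye fluorescence of choline-evoked depolarization via CHT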
[10] = test system: Streptococcus sp. 'group A'; experiment: growth inhibition of control SK(-) GAS strain, dose response, counter-screen for streptokinase expression inhibitor project, luminescence, kanamycin, BacTiterGlo, confirmation (AID 1900); assay type: functional, organism-based
[11] = C. albicans growth with fluconazole, confirmation, fluorescence, retest (AID 2467); assay type: functional, cell-based
Streptococcus = experiment: Group A Streptococcus viability loss, dose response, counter-screen for streptokinase expression inhibitor project, luminescence, BacTiterGlo (AID 1915); assay type: functional, organism-based;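 also: potency for reduction of bacterial viability or growth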
[12] = NIH-3T3 fibroblast cytotoxicity, dose response, cytotoxicity control, cell-based, fluorescence, Alamar Blue, secondary assay (AID 2327); assay type: functional;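 also: NIH-3T3 mouse fibroblasts cultured with fluconazole at 8 µg/mL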
[13] = biological target: T8, Corticotropin-releasing factor receptor 2/Corticotropin-releasing factor-binding protein (Homo sapiens, UniProt P24387+Q13324); experiment: activators of CRF receptor 2 with binding protein – uHTS hits, confirmation (AID 602473); assay type: functional; settings: read-out: EC50_Mean
T8 sequence (Q13324 whole entry): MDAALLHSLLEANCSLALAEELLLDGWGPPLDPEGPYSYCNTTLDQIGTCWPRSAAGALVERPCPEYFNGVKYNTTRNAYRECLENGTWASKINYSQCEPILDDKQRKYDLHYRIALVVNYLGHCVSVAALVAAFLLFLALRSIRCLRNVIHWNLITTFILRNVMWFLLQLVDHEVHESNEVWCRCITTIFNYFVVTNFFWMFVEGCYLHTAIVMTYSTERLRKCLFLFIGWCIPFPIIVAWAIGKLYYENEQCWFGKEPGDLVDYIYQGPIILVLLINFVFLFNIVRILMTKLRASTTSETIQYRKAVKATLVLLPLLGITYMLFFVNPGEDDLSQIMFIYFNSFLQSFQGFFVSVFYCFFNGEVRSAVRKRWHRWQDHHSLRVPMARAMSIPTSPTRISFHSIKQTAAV
T8 sequence (P24387 whole entry): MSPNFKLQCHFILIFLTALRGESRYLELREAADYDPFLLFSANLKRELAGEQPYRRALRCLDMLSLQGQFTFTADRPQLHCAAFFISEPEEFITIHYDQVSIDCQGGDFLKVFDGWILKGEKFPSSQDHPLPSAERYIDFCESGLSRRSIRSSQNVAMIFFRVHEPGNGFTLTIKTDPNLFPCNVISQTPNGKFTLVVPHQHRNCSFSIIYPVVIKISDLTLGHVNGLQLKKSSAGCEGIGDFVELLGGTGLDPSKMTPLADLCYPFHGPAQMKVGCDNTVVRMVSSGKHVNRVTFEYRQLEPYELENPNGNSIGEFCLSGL

Prothrombin = Prothrombin (Homo sapiens, UniProt P00734); experiment: Thrombin 1536 HTS Dose Response Confirmation. [Related pubchem assays: 1046 (Thrombin 1536 HTS; hits were confirmed in this assay)]; assay type: functional

## COc1ccc(/C=C2\SC(=O)NC2=S)cc1OC
[1]
  AC50: 9.55 µM (active)

## Oc1c(Br)cc(Br)c(/C=N/n2c(S)nnc2-c2ccccc2)c1Br
Cysteine protease ATG4B
  IC50: 7.7 µM (active)
Genome polyprotein
  IC50: 17.9 µM (active)
Large T antigen
  IC50: 28.2 µM (active)
Phospholipase A2
  IC50: 36.8 µM (inactive)
[2]
  AC50: 8.53 µM (active)
[3]
  IC50: 13.2 µM (active)
[4]
  EC50: 5.63 µM (active)

## Nc1nonc1-n1nnc(C(=O)N/N=C/c2ccc3c(c2)OCO3)c1CSc1ccccc1
[5]
  EC50: > 99 µM (inactive)
[6]
  EC50: > 99 µM (inactive)

## CC(=O)Nc1cccc(C(=O)/C=C/c2ccc(N(C)C)cc2)c1
[5]
  EC50: > 99 µM (inactive)
[6]
  EC50: > 99 µM (inactive)

## COc1cc(/C=C2\SC(=S)N(NC(=O)c3cccc(O)c3)C2=O)ccc1O
[7]
  IC50: 54.8 µM (active)
[1]
  AC50: 6.23 µM (active)
[8]
  AC50: 32 µM (inactive)

## Nc1ncc(Br)cc1S(=O)(=O)Nc1cc(C(F)(F)F)cc(C(F)(F)F)c1
Streptokinase A
  EC50: 3.32 µM (active)
[9]
  IC50: 4.01 µM (active)
Cysteine protease ATG4B
  IC50: 8.94 µM (active)
Phospholipase A2
  IC50: 8.69 µM (active)
[10]
  EC50: 6.6 µM (active)
[11]
  EC50: 0.341 µM (active)
[3]
  IC50: 9.12 µM (active)
Streptococcus
  EC50: 19.9 µM (active)
[12]
  EC50: 18.2 µM (active)

## CCC(CC)C1=NN2C(=N)/C(=C\c3cc(C)n(-c4cccc(C)c4)c3C)C(=O)N=C2S1
Streptokinase A
  EC50: > 150 µM (not active)
Cysteine protease ATG4B
  IC50: 15.7 µM (active)
Phospholipase A2
  IC50: 0.975 µM (active)
[10]
  EC50: 7.3 µM (active)
[13]
  EC50: 6.03 µM (active)
Streptococcus
  EC50: 17.8 µM (active)

## O=C(O)c1cc([N+](=O)[O-])ccc1NCc1ccccc1Cl
Cysteine protease ATG4B
  IC50: 11.9 µM (active)
Prothrombin
  IC50: > 50 µM (not active)
Phospholipase A2
  IC50: 9.55 µM (active)
